Calls of active or inactive are those of the source. No cut-off for these calls is given here.
Tests used:
[1] = molecular target: Epidermal growth factor receptor (Homo sapiens, UniProt P00533); assay: Inhibition of wild type EGFR (unknown origin) by mobility shift assay
[2] = molecular target: Epidermal growth factor receptor (Homo sapiens, UniProt P00533, L858R/T790M); assay: Inhibition of EGFR L858R/T790M mutant (unknown origin) by mobility shift assay
[3] = molecular target: Epidermal growth factor receptor (Homo sapiens, UniProt P00533, C797S/L858R/T790M); assay: Inhibition of EGFR L858R/T790M/C797S mutant (unknown origin) by mobility shift assay
[4] = molecular target: Hepatocyte growth factor receptor (Homo sapiens, UniProt P08581); assay: Inhibition of c-Met (unknown origin) by mobility shift assay
Sequence of Hepatocyte growth factor receptor (P08581 whole entry): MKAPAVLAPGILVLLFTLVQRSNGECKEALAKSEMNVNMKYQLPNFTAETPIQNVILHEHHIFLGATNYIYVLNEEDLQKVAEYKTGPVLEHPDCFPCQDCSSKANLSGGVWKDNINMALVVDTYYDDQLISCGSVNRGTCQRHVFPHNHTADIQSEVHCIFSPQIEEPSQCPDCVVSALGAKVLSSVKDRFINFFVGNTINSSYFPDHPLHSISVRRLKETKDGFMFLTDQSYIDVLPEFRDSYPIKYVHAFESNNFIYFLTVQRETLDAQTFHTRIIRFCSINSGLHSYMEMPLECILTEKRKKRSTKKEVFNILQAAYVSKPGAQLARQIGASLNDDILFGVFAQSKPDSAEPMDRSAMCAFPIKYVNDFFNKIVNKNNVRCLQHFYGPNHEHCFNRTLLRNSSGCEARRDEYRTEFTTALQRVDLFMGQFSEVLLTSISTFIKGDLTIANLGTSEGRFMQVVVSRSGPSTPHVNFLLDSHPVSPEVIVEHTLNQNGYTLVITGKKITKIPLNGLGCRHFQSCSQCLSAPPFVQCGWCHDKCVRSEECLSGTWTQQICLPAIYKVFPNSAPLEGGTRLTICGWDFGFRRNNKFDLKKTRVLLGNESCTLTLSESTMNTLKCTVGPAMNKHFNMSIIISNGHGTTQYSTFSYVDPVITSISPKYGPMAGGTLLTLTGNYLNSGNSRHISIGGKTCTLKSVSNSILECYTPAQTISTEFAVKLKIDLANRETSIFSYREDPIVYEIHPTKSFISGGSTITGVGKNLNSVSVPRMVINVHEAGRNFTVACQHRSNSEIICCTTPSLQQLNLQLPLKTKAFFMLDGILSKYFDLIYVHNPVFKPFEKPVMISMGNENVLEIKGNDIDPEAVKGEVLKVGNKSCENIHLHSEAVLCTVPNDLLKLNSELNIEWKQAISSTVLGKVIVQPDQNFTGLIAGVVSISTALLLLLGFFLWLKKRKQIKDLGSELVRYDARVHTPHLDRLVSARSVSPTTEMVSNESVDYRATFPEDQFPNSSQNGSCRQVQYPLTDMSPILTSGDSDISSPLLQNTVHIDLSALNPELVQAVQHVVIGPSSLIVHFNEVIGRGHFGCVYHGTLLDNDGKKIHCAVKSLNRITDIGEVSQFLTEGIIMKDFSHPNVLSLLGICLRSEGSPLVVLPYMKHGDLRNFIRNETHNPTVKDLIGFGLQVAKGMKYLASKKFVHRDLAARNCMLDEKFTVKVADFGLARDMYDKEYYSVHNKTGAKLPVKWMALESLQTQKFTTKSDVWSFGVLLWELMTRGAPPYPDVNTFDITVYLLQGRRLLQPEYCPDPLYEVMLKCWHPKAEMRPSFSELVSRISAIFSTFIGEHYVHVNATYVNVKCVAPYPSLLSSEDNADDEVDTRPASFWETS

A549 [5] = assay: Antiproliferative activity against human A549 cells assessed as cell viability after 72 hrs by MTT assay; type: functional, cell-based; settings: A549, 72 h
NCI-H1975 [6] = assay: Antiproliferative activity against human H1975 cells assessed as cell viability after 72 hrs by MTT assay; type: functional, cell-based; settings: NCI-H1975, 72 h
[7] = test system: Epidermal growth factor receptor (Homo sapiens), P00533 [L858R,T790M,C797S]; settings: dose 300.0 nM
Sequence of Epidermal growth factor receptor (Homo sapiens), P00533 [L858R,T790M,C797S] (P00533 whole entry T790M/C797S/L858R): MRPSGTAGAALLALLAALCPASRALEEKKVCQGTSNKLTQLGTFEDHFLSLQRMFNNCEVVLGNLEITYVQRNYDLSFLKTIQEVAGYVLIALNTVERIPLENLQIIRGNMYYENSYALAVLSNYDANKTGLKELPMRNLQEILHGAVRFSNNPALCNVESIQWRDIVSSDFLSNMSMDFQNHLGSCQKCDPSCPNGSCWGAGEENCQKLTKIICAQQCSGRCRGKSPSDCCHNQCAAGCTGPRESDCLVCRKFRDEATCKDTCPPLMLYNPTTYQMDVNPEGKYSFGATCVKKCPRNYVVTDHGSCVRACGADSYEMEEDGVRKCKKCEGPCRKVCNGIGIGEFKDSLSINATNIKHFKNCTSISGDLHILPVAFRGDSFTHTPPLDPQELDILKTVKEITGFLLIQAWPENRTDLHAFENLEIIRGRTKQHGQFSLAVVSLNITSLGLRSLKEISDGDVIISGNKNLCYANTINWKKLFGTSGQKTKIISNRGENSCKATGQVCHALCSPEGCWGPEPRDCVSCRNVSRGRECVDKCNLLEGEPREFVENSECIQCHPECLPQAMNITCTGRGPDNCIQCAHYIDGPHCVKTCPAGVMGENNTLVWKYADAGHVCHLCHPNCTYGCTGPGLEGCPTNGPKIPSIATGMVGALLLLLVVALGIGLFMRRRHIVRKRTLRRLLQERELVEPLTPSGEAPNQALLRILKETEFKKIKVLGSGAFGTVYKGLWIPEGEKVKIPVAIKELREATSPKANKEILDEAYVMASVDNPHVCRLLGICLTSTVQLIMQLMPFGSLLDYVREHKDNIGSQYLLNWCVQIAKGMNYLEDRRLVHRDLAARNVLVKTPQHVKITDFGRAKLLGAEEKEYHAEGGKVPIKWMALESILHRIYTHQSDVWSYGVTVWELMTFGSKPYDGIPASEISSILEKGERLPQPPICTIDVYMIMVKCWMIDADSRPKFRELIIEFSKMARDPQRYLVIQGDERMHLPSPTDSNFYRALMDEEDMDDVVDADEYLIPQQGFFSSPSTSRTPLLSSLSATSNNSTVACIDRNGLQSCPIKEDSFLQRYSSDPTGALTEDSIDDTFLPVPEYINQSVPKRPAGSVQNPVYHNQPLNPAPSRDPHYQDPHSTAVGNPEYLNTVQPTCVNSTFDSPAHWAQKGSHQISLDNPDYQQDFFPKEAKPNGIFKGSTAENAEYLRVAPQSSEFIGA

A549 [8] = assay: Induction of apoptosis in human A549 cells assessed as cell shrinkage after 48 hrs by AO/EB staining based fluorescent microscopic analysis; type: functional; settings: dose 0.1-10 µM, DDE = dose-dependent effect
A549 [9] = assay: Induction of apoptosis in human A549 cells assessed as chromatin condensation after 48 hrs by AO/EB staining based fluorescent microscopic analysis; type: functional, cell-based; settings: dose 0.1-10 µM, DDE = dose-dependent effect
NCI-H1975 [10] = assay: Induction of apoptosis in human H1975 cells assessed as cell shrinkage after 48 hrs by AO/EB staining based fluorescent microscopic analysis; type: functional; settings: dose 0.1-10 µM, DDE = dose-dependent effect
NCI-H1975 [11] = assay: Induction of apoptosis in human H1975 cells assessed as chromatin condensation after 48 hrs by AO/EB staining based fluorescent microscopic analysis; type: functional, cell-based; settings: dose 0.1-10 µM, DDE = dose-dependent effect
A549 [12] = assay: Inhibition of cell migration of human A549 cells at 0.1 to 1 uM after 24 hrs by scratch wound healing assay; type: functional, cell-based; settings: dose 0.1-1 µM
NCI-H1975 [13] = assay: Inhibition of cell migration of human H1975 cells at 0.1 to 1 uM after 24 hrs by scratch wound healing assay; type: functional, cell-based; settings: dose 0.1-1 µM
NCI-H1975 [14] = assay: Induction of cell cycle arrest in human H1975 cells assessed as number of cells at S phase at 1.3 uM after 24 hrs by flow cytometry (reference value: 25.41%); type: functional
NCI-H1975 [15] = assay: Induction of cell cycle arrest in human H1975 cells assessed as number of cells at S phase at 4 uM after 24 hrs by flow cytometry (reference value: 25.41%); type: functional
NCI-H1975 [16] = assay: Induction of cell cycle arrest in human H1975 cells assessed as number of cells at S phase at 12 uM after 24 hrs by flow cytometry (reference value: 25.41%); type: functional
NCI-H1975 [17] = assay: Induction of cell cycle arrest in human H1975 cells assessed as number of cells at G2/M phase at 1.3 uM after 24 hrs by flow cytometry (reference value: 31.41%); type: functional
NCI-H1975 [18] = assay: Induction of cell cycle arrest in human H1975 cells assessed as number of cells at G2/M phase at 4 uM after 24 hrs by flow cytometry (reference value: 31.41%); type: functional
NCI-H1975 [19] = assay: Induction of cell cycle arrest in human H1975 cells assessed as number of cells at G2/M phase at 12 uM after 24 hrs by flow cytometry (reference value: 31.41%); type: functional
NCI-H1975 [20] = assay: Induction of cell cycle arrest in human H1975 cells assessed as number of cells at G1/G0 phase at 1.3 uM after 24 hrs by flow cytometry (reference value: 43.18%); type: functional
NCI-H1975 [21] = assay: Induction of cell cycle arrest in human H1975 cells assessed as number of cells at G1/G0 phase at 4 uM after 24 hrs by flow cytometry (reference value: 43.18%); type: functional
NCI-H1975 [22] = assay: Induction of cell cycle arrest in human H1975 cells assessed as number of cells at G1/G0 phase at 12 uM after 24 hrs by flow cytometry (reference value: 43.18%); type: functional

Sequence of Epidermal growth factor receptor (Homo sapiens, UniProt P00533, L858R/T790M) (P00533 25-1210 T790M/L858R limits assumed): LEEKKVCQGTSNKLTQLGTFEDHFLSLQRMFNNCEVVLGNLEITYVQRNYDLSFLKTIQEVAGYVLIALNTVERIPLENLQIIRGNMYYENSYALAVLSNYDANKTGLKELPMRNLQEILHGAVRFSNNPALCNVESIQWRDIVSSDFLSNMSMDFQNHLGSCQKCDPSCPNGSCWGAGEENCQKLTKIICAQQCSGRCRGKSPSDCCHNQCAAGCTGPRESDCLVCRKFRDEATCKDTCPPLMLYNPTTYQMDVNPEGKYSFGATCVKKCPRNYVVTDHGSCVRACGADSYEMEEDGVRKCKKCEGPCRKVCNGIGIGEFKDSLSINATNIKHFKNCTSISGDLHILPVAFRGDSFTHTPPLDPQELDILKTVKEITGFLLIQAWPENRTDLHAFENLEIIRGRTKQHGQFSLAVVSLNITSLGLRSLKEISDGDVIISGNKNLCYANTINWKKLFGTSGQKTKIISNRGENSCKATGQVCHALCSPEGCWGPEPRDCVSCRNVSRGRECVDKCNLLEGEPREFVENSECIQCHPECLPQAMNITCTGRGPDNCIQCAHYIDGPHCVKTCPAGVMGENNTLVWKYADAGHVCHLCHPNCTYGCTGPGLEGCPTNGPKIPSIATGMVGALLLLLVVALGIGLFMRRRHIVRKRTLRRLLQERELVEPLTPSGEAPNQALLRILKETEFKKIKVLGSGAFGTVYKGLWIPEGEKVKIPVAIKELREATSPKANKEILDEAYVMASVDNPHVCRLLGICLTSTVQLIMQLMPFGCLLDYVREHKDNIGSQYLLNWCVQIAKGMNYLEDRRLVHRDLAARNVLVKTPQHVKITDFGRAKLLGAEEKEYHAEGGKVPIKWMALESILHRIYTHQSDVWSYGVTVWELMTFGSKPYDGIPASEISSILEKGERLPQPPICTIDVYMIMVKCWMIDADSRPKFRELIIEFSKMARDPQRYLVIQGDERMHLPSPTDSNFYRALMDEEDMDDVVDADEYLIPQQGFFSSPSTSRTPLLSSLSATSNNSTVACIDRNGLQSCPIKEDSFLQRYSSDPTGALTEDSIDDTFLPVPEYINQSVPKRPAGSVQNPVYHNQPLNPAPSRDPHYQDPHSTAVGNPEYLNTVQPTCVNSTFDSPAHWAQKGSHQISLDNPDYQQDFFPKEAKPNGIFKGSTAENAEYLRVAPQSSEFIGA
Sequence of Epidermal growth factor receptor (Homo sapiens, UniProt P00533) (P00533 whole entry): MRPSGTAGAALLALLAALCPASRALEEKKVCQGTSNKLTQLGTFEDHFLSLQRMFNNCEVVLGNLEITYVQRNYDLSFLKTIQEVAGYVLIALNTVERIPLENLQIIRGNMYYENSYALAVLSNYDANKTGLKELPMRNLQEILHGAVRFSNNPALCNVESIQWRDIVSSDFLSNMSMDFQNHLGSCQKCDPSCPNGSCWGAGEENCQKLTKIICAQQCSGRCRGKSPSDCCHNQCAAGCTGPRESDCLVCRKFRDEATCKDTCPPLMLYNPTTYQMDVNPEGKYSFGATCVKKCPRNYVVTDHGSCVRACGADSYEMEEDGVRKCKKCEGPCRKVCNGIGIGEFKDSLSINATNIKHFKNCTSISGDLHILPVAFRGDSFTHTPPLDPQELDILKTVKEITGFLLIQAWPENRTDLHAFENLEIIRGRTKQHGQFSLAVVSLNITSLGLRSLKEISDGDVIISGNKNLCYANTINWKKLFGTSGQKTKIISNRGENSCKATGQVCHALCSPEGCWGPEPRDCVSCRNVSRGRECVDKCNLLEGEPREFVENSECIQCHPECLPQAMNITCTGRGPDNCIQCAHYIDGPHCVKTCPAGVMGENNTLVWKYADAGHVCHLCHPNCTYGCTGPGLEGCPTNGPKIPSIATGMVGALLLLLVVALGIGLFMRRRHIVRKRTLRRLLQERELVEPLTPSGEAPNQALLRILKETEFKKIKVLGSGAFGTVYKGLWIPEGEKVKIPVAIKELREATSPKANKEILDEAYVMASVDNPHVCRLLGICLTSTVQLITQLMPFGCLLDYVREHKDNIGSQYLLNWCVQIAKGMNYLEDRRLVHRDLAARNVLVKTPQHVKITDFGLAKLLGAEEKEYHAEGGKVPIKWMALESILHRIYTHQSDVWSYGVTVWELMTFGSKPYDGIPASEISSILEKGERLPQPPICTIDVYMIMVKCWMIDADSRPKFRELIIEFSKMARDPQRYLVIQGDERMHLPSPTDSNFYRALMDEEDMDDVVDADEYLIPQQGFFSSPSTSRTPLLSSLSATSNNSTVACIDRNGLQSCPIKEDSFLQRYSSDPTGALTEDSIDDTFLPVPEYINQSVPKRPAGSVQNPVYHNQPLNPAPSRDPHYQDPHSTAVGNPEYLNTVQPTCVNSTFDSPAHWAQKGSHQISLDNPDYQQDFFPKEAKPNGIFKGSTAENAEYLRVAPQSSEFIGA

SMILES	IC50 [1] [µM]	IC50 [2] [µM]	IC50 [3] [µM]	IC50 [4] [µM]	IC50 (A549 [5]) [µM]	IC50 (NCI-H1975 [6]) [µM]	inhibition [7] [%]	other results
COc1cc(N(C)CCN(C)C)c(NC(=O)c2cnccn2)cc1Nc1nccc(-c2cn(C)c3ccccc23)n1	0.224	0.017	> 0.5	> 1	4.33	1.22	38.2	
COc1cc(N(C)CCN(C)C)c(NC(=O)c2ncccn2)cc1Nc1nccc(-c2cn(C)c3ccccc23)n1	0.146	0.03	> 0.5	> 1	2.49	0.65	38.2	
COc1cc(N(C)CCN(C)C)c(NC(=O)c2ccncn2)cc1Nc1nccc(-c2cn(CCCO)c3ccccc23)n1	0.59	0.041	0.161	> 1	2.66	2.12	65.6	
COc1cc(N(C)CCN(C)C)c(NC(=O)c2nccn2C)cc1Nc1nc(-c2cn(C)c3ccccc23)c2cccnc2n1	> 0.5	0.42	> 0.5	> 1	5.64	4.2	19.4	
COc1cc(N(C)CCN(C)C)c(NC(=O)c2cccnc2)cc1Nc1nccc(-c2cn(C)c3ccccc23)n1	> 0.5	0.36	> 0.5	> 1	1.6	1.75	41.6	
COc1cc(N(C)CCN(C)C)c(NC(=O)c2ccnc(O)c2)cc1Nc1nccc(-c2cn(C)c3ccccc23)n1	> 0.5	> 0.5	> 0.5	> 1	11.2	12	38.1	
COc1cc(N(C)CCN(C)C)c(NC(=O)c2ccncn2)cc1Nc1nc(-c2cn(C)c3ccccc23)c2cccnc2n1	0.36	> 0.5	> 0.5	> 1	4.52	1.09	22.3	
COc1cc(N(C)CCN(C)C)c(NC(=O)c2ccnc(Cl)c2)cc1Nc1nccc(-c2cn(CCCO)c3ccccc23)n1	0.743	0.042	0.137	> 1	2.14	1.82	70.1	
COc1cc(N(C)CCN(C)C)c(NC(=O)c2ccncn2)cc1Nc1nccc(-c2cn(C)c3ccccc23)n1	0.029	0.01	0.242	> 1	2.53	1.56	60.8	Activity (A549 [8]): Dde; Activity (A549 [9]): Dde; Activity (NCI-H1975 [10]): Dde; Activity (NCI-H1975 [11]): Dde; inhibition (A549 [12]): Active; inhibition (NCI-H1975 [13]): Active; Activity (NCI-H1975 [14]): 22.67%; Activity (NCI-H1975 [15]): 18.36%; Activity (NCI-H1975 [16]): 12.55%; Activity (NCI-H1975 [17]): 31.18%; Activity (NCI-H1975 [18]): 31.02%; Activity (NCI-H1975 [19]): 30.13%; Activity (NCI-H1975 [20]): 46.15%; Activity (NCI-H1975 [21]): 50.62%; Activity (NCI-H1975 [22]): 57.32%
COc1cc(N(C)CCN(C)C)c(NC(=O)c2ccncc2OC)cc1Nc1nccc(-c2cn(C)c3ccccc23)n1	> 0.5	0.1	> 0.5	> 1	2.69	1.01	28.5	
COc1cc(N(C)CCN(C)C)c(NC(=O)c2ccncc2)cc1Nc1nccc(-c2cn(C)c3ccccc23)n1	> 0.5	0.391	> 0.5	> 1	10.4	6.86	24	
COc1cc(N(C)CCN(C)C)c(NC(=O)c2ccnc(Cl)c2)cc1Nc1nccc(-c2cn(C)c3ccccc23)n1	> 0.5	> 0.5	0.42	> 1	0.97	2.05	42.9	
COc1ccc(C(=O)Nc2cc(Nc3nccc(-c4cn(C)c5ccccc45)n3)c(OC)cc2N(C)CCN(C)C)nc1				> 1	5.23	4.23		

Source: ChEMBL document CHEMBL5137051 (Eur J Med Chem, 2022)
